Measured values: PubChem BioAssay AID2060342 (Molecular Pharmacology Branch, DTP, NCI, 2025)

System: 171881-019-R-J1-PDC multicell spheroid viability
Experiment: Anticancer human tumor 171881-019-R-J1-PDC patient-derived invasive breast carcinoma cell line growth inhibition [IpAb]
Conditions: for IC50: curve of first compound; for viability, T/C: stronger effect = lower value
In short: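 Combinations with ipatasertib or abemaciclib were tested on tumour spheroids holding HUVEC (25%) and MSC (15%) alongside 60% malignant cells. Top concentration was at or near clinical Cmax (10 microM if undefined), descending in half-log steps.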

[1] = second compound 0.1 µM, first compound 0.0316 µM
[2] = second compound 0.1 µM, first compound 0.1 µM
[3] = second compound 0.1 µM, first compound 0.316 µM
[4] = second compound 0.1 µM, first compound 1 µM
[5] = second compound 0.1 µM, first compound 3.16 µM
[6] = second compound 0.1 µM, first compound 10 µM
[7] = second compound 0.316 µM, first compound 0.0316 µM
[8] = second compound 0.316 µM, first compound 0.1 µM
[9] = second compound 0.316 µM, first compound 0.316 µM
[10] = second compound 0.316 µM, first compound 1 µM
[11] = second compound 0.316 µM, first compound 3.16 µM
[12] = second compound 0.316 µM, first compound 10 µM
[13] = second compound 1 µM, first compound 0.0316 µM
[14] = second compound 1 µM, first compound 0.1 µM
[15] = second compound 1 µM, first compound 0.316 µM
[16] = second compound 1 µM, first compound 1 µM
[17] = second compound 1 µM, first compound 3.16 µM
[18] = second compound 1 µM, first compound 10 µM
[19] = second compound 3.16 µM, first compound 0.0316 µM
[20] = second compound 3.16 µM, first compound 0.1 µM
[21] = second compound 10 µM, first compound 0.0316 µM
[22] = second compound 10 µM, first compound 0.1 µM
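Also: spheroids exposed to the agents for seven days before readout.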

## Cn1ncc(Cl)c1-c1cc(C(=O)NC(CN)Cc2cccc(F)c2)sc1Cl (stereo not given) + CC(C)NCC(C(=O)N1CCN(c2ncnc3c2C(C)CC3O)CC1)c1ccc(Cl)cc1
Second compound 0.1 µM
  IC50: 0.161 µM
Second compound 0.316 µM
  IC50: 0.0663 µM
Second compound 1 µM
  IC50: < 0.0316 µM
Second compound 3.16 µM
  IC50: < 0.0316 µM
Second compound 10 µM
  IC50: < 0.0316 µM
[1]
  viability, T/C: 86.5%
[2]
  viability, T/C: 67.3%
[3]
  viability, T/C: 25%
[4]
  viability, T/C: 13.1%
[5]
  viability, T/C: 4.31%
[6]
  viability, T/C: 0.42%
[7]
  viability, T/C: 59.8%
[8]
  viability, T/C: 45.3%
[9]
  viability, T/C: 22.6%
[10]
  viability, T/C: 10.6%
[11]
  viability, T/C: 3.79%
[12]
  viability, T/C: 0.18%
[13]
  viability, T/C: 23.8%
[14]
  viability, T/C: 20.8%
[15]
  viability, T/C: 13.8%
[16]
  viability, T/C: 9.71%
[17]
  viability, T/C: 3.91%
[18]
  viability, T/C: 0.14%
[19]
  viability, T/C: 10.8%
[20]
  viability, T/C: 10.5%
Second compound 3.16 µM, first compound 0.316 µM
  viability, T/C: 9.15%
Second compound 3.16 µM, first compound 1 µM
  viability, T/C: 7.27%
Second compound 3.16 µM, first compound 3.16 µM
  viability, T/C: 3.38%
Second compound 3.16 µM, first compound 10 µM
  viability, T/C: 0.25%
[21]
  viability, T/C: 5.35%
[22]
  viability, T/C: 5.51%
Second compound 10 µM, first compound 0.316 µM
  viability, T/C: 5.12%
Second compound 10 µM, first compound 1 µM
  viability, T/C: 4.62%
Second compound 10 µM, first compound 3.16 µM
  viability, T/C: 2.7%
Second compound 10 µM, first compound 10 µM
  viability, T/C: 0.21%

## Cn1ncnc1[C@H]1c2n[nH]c(=O)c3cc(F)cc(c23)N[C@@H]1c1ccc(F)cc1 + CC(C)NCC(C(=O)N1CCN(c2ncnc3c2C(C)CC3O)CC1)c1ccc(Cl)cc1
Second compound 0.1 µM
  IC50: > 0.1 µM
Second compound 0.316 µM
  IC50: > 0.1 µM
Second compound 1 µM
  IC50: < 0.000316 µM
Second compound 3.16 µM
  IC50: < 0.000316 µM
Second compound 10 µM
  IC50: < 0.000316 µM
Second compound 0.1 µM, first compound 0.000316 µM
  viability, T/C: 102%
Second compound 0.1 µM, first compound 0.001 µM
  viability, T/C: 114%
Second compound 0.1 µM, first compound 0.00316 µM
  viability, T/C: 121%
Second compound 0.1 µM, first compound 0.01 µM
  viability, T/C: 108%
[1]
  viability, T/C: 108%
[2]
  viability, T/C: 101%
Second compound 0.316 µM, first compound 0.000316 µM
  viability, T/C: 74.8%
Second compound 0.316 µM, first compound 0.001 µM
  viability, T/C: 75.1%
Second compound 0.316 µM, first compound 0.00316 µM
  viability, T/C: 75.6%
Second compound 0.316 µM, first compound 0.01 µM
  viability, T/C: 72.6%
[7]
  viability, T/C: 65.8%
[8]
  viability, T/C: 60.8%
Second compound 1 µM, first compound 0.000316 µM
  viability, T/C: 27.4%
Second compound 1 µM, first compound 0.001 µM
  viability, T/C: 24.4%
Second compound 1 µM, first compound 0.00316 µM
  viability, T/C: 20.7%
Second compound 1 µM, first compound 0.01 µM
  viability, T/C: 24.6%
[13]
  viability, T/C: 20.3%
[14]
  viability, T/C: 17.1%
Second compound 3.16 µM, first compound 0.000316 µM
  viability, T/C: 10.7%
Second compound 3.16 µM, first compound 0.001 µM
  viability, T/C: 12.5%
Second compound 3.16 µM, first compound 0.00316 µM
  viability, T/C: 8.98%
Second compound 3.16 µM, first compound 0.01 µM
  viability, T/C: 10%
[19]
  viability, T/C: 8.89%
[20]
  viability, T/C: 7.64%
Second compound 10 µM, first compound 0.000316 µM
  viability, T/C: 5.76%
Second compound 10 µM, first compound 0.001 µM
  viability, T/C: 5.36%
Second compound 10 µM, first compound 0.00316 µM
  viability, T/C: 5.17%
Second compound 10 µM, first compound 0.01 µM
  viability, T/C: 5.3%
[21]
  viability, T/C: 4.77%
[22]
  viability, T/C: 4.29%

## C=CCn1c(=O)c2cnc(Nc3ccc(N4CCN(C)CC4)cc3)nc2n1-c1cccc(C(C)(C)O)n1 + CCN1CCN(Cc2ccc(Nc3ncc(F)c(-c4cc(F)c5nc(C)n(C(C)C)c5c4)n3)nc2)CC1
Second compound 0.01 µM
  IC50: 0.864 µM
Second compound 0.0316 µM
  IC50: 1 µM
Second compound 0.1 µM
  IC50: 1.66 µM
Second compound 0.316 µM
  IC50: > 10 µM
Second compound 1 µM
  IC50: > 10 µM
Second compound 0.01 µM, first compound 0.0316 µM
  viability, T/C: 88.8%
Second compound 0.01 µM, first compound 0.1 µM
  viability, T/C: 93.3%
Second compound 0.01 µM, first compound 0.316 µM
  viability, T/C: 109%
Second compound 0.01 µM, first compound 1 µM
  viability, T/C: 43.2%
Second compound 0.01 µM, first compound 3.16 µM
  viability, T/C: 30.3%
Second compound 0.01 µM, first compound 10 µM
  viability, T/C: 30.3%
Second compound 0.0316 µM, first compound 0.0316 µM
  viability, T/C: 116%
Second compound 0.0316 µM, first compound 0.1 µM
  viability, T/C: 97.3%
Second compound 0.0316 µM, first compound 0.316 µM
  viability, T/C: 119%
Second compound 0.0316 µM, first compound 1 µM
  viability, T/C: 50%
Second compound 0.0316 µM, first compound 3.16 µM
  viability, T/C: 35%
Second compound 0.0316 µM, first compound 10 µM
  viability, T/C: 32%
[1]
  viability, T/C: 110%
[2]
  viability, T/C: 105%
[3]
  viability, T/C: 126%
[4]
  viability, T/C: 57.9%
[5]
  viability, T/C: 42.7%
[6]
  viability, T/C: 37.2%
[7]
  viability, T/C: 131%
[8]
  viability, T/C: 137%
[9]
  viability, T/C: 134%
[10]
  viability, T/C: 83.1%
[11]
  viability, T/C: 57.1%
[12]
  viability, T/C: 47.7%
[13]
  viability, T/C: 150%
[14]
  viability, T/C: 150%
[15]
  viability, T/C: 149%
[16]
  viability, T/C: 98.8%
[17]
  viability, T/C: 78.7%
[18]
  viability, T/C: 69.8%

## Cn1cnc2c(F)c(Nc3ccc(Br)cc3Cl)c(C(=O)NOCCO)cc21 + CCN1CCN(Cc2ccc(Nc3ncc(F)c(-c4cc(F)c5nc(C)n(C(C)C)c5c4)n3)nc2)CC1
Second compound 0.01 µM
  IC50: 1.25 µM
Second compound 0.0316 µM
  IC50: 1.13 µM
Second compound 0.1 µM
  IC50: 1.15 µM
Second compound 0.316 µM
  IC50: 1.4 µM
Second compound 1 µM
  IC50: 1.32 µM
Second compound 0.01 µM, first compound 0.00949 µM
  viability, T/C: 97.1%
Second compound 0.01 µM, first compound 0.03 µM
  viability, T/C: 114%
Second compound 0.01 µM, first compound 0.0949 µM
  viability, T/C: 112%
Second compound 0.01 µM, first compound 0.3 µM
  viability, T/C: 114%
Second compound 0.01 µM, first compound 0.949 µM
  viability, T/C: 61.3%
Second compound 0.01 µM, first compound 3 µM
  viability, T/C: 13.9%
Second compound 0.0316 µM, first compound 0.00949 µM
  viability, T/C: 121%
Second compound 0.0316 µM, first compound 0.03 µM
  viability, T/C: 120%
Second compound 0.0316 µM, first compound 0.0949 µM
  viability, T/C: 130%
Second compound 0.0316 µM, first compound 0.3 µM
  viability, T/C: 109%
Second compound 0.0316 µM, first compound 0.949 µM
  viability, T/C: 56.8%
Second compound 0.0316 µM, first compound 3 µM
  viability, T/C: 14.6%
Second compound 0.1 µM, first compound 0.00949 µM
  viability, T/C: 112%
Second compound 0.1 µM, first compound 0.03 µM
  viability, T/C: 138%
Second compound 0.1 µM, first compound 0.0949 µM
  viability, T/C: 126%
Second compound 0.1 µM, first compound 0.3 µM
  viability, T/C: 99.7%
Second compound 0.1 µM, first compound 0.949 µM
  viability, T/C: 58.3%
Second compound 0.1 µM, first compound 3 µM
  viability, T/C: 15.9%
Second compound 0.316 µM, first compound 0.00949 µM
  viability, T/C: 142%
Second compound 0.316 µM, first compound 0.03 µM
  viability, T/C: 142%
Second compound 0.316 µM, first compound 0.0949 µM
  viability, T/C: 136%
Second compound 0.316 µM, first compound 0.3 µM
  viability, T/C: 116%
Second compound 0.316 µM, first compound 0.949 µM
  viability, T/C: 63.4%
Second compound 0.316 µM, first compound 3 µM
  viability, T/C: 23.4%
Second compound 1 µM, first compound 0.00949 µM
  viability, T/C: 149%
Second compound 1 µM, first compound 0.03 µM
  viability, T/C: 142%
Second compound 1 µM, first compound 0.0949 µM
  viability, T/C: 138%
Second compound 1 µM, first compound 0.3 µM
  viability, T/C: 106%
Second compound 1 µM, first compound 0.949 µM
  viability, T/C: 59.5%
Second compound 1 µM, first compound 3 µM
  viability, T/C: 25.8%
